Test results reported in ChEMBL document CHEMBL1139717, “Solid-phase combinatorial approach for the optimization of soluble epoxide hydrolase inhibitors” (Bioorg Med Chem Lett, 2006).

Legend:
[1] = target: T1, Bifunctional epoxide hydrolase 2 (Homo sapiens, UniProt P34913); assay: Inhibition of human recombinant soluble epoxide hydrolase by kinetic fluorescent assay
T1 sequence (P34913 whole entry): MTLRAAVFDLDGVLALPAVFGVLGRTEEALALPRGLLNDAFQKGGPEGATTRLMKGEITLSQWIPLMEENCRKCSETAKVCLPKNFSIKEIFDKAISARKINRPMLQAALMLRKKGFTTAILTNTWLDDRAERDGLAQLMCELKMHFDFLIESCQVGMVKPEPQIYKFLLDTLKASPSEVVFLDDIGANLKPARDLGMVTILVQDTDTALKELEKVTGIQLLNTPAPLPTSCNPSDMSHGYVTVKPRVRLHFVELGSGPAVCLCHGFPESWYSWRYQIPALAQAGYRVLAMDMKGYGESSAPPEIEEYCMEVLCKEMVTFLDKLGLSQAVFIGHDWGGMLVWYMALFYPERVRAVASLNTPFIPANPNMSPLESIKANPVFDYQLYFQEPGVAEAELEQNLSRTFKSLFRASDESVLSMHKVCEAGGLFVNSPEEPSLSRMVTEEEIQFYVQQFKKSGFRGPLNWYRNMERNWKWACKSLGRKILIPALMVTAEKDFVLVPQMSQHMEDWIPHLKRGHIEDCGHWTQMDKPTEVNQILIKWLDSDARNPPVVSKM

[2] = target: T2, Bifunctional epoxide hydrolase 2 (Homo sapiens) (UniProt P34913); assay: Inhibition of human recombinant soluble epoxide hydrolase at 100 nM by end-point fluorescent assay
T2 sequence (whole entry): T1 sequence (P34913 whole entry)

SMILES	IC50 [1] [nM]	inhibition [2] [%]
O=C(NC1CCCCCC1)N[C@H]1CC[C@@H](Oc2ccc(F)cc2)CC1	0.5	87
COC(=O)c1ccc(NC(=O)N[C@H]2CC[C@@H](Oc3ccc(F)cc3)CC2)cc1	2.9	62
Cc1cccc(C)c1NC(=O)N[C@H]1CC[C@@H](Oc2ccc(F)cc2)CC1	1200	4
CN(C)c1cccc2c(S(=O)(=O)NCCNC(=O)NC34CC5CC(CC(C5)C3)C4)cccc12	30	19
COC(=O)c1cccc(NC(=O)N[C@H]2CC[C@@H](Oc3ccc(F)cc3)CC2)c1	2	72
CC(C)c1cccc(C(C)C)c1NC(=O)N[C@H]1CC[C@@H](Oc2ccc(F)cc2)CC1	50500	5
C[C@@H](NC(=O)NC12CC3CC(CC(C3)C1)C2)c1ccccc1	100	10
O=C(Nc1c(Cl)cccc1Cl)N[C@H]1CC[C@@H](Oc2ccc(F)cc2)CC1	940	1

The remaining lines, values ahead:

IC50 [1] [nM]	inhibition [2] [%]	SMILES
0.6	80	O=C(Nc1ccc(Br)cc1)N[C@H]1CC[C@@H](Oc2ccc(F)cc2)CC1
1	76	O=C(Nc1ccc(I)cc1)N[C@H]1CC[C@@H](Oc2ccc(F)cc2)CC1
590		O=C(Nc1cccc(C(=O)O)c1)N[C@H]1CC[C@@H](Oc2ccc(F)cc2)CC1
1.2	82	O=C(Nc1ccc(C(F)(F)F)cc1)N[C@H]1CC[C@@H](Oc2ccc(F)cc2)CC1
100	2	O=C(Nc1ccccc1OC(F)(F)F)N[C@H]1CC[C@@H](Oc2ccc(F)cc2)CC1
0.7	81	O=C(Nc1ccc(Cl)cc1)N[C@H]1CC[C@@H](Oc2ccc(F)cc2)CC1
	84	O=C(Nc1ccc(OC(F)(F)F)cc1)N[C@H]1CC[C@@H](Oc2ccc(F)cc2)CC1
